The target of assay [1] is T1, LIF/LIFR complex (Homo sapiens, UniProt P42702).
T1 construct: purchased Sino Biological (LIFR); R&D Systems (LIF)
T1 sequence (P42702 45-833 limits assumed): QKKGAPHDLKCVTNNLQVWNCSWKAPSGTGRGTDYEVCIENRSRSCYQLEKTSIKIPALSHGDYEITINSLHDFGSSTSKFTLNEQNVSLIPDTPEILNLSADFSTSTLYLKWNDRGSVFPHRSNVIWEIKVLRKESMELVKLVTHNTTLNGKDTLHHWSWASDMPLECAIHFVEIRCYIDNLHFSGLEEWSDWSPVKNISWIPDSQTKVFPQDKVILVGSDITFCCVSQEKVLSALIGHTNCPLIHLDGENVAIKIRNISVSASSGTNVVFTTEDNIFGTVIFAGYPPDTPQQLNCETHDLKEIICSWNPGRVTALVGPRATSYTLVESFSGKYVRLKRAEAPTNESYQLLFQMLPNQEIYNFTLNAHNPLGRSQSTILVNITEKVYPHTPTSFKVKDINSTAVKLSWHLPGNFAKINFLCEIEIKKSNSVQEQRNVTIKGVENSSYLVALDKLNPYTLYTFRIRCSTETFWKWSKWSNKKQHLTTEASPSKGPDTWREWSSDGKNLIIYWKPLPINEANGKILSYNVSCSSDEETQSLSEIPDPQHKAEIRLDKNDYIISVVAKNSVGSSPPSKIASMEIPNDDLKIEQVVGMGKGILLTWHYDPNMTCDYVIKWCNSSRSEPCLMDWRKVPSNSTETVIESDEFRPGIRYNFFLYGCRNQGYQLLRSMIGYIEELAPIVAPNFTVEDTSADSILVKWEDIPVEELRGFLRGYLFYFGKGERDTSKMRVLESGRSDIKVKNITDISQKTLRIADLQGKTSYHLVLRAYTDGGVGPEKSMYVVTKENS
Kind of assay: Alpha Screen inhibition of LIFR/LIF binding (cell-free). The following applies: for IC50: cell-free, LIFR 4.5 nM, biotinylated LIF 9 nM, read-out: LIFR IC50 AlphaScreen (inhibition of LIFR/LIF binding). The protocol: Recombinant human LIFR (His Tag) and biotinylated recombinant human LIF were purchased from Sino Biologicals (Sino Biological Europe GmbH, Dusseldorf, Germany) and R&D Systems (Abingdon, UK), respectively, and both were reconstituted as required by the manufacturer. […] The assay was carried out in white, low-volume, 384-well AlphaPlates (PerkinElmer, Waltham, MA, USA) using a final volume of 25 µL and an assay buffer containing 25 mM Hepes (pH 7.4), 100 mM NaCl, and 0.005% Kathon. The concentration of DMSO in each well was maintained at 5%. […] Then, LIF was added (biotinylated, final concentration 9 nM), and the samples were incubated for 15 min prior to adding His-Tag acceptor beads (final concentration 20 ng/µL) for 30 min. Then, streptavidin donor beads were added (final concentration 20 ng/µL), and the plate was incubated in the dark for 2 h and then read in an EnSpire Alpha multimode plate reader (PerkinElmer, Waltham, MA, USA).
A general note: Bead proximity is the source of the signal in Alpha formats.

Assay [2] addresses T2, human GPBAR1 (Homo sapiens, UniProt Q8TDU6).
T2 construct: expressed in transfected cells; host or cells: HEK-293T
T2 sequence (Q8TDU6 1-330): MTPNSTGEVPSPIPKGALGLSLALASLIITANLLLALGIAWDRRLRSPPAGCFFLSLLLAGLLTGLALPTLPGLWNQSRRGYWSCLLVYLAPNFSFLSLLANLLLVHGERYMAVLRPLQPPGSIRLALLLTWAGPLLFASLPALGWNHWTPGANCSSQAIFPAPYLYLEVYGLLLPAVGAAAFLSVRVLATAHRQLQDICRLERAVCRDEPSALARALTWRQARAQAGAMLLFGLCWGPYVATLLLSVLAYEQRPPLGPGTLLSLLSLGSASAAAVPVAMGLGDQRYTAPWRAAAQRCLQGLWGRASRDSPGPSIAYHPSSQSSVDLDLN
Kind of assay: GPBAR1 transactivation (CRE-luciferase) in HEK-293T cells. The assay is classed as cell-based.

Several values for one entry are separate records, joined by “and”; a condition that tells them apart may be missing. Identical values can stand only once.

On to `OCc1ccc(-c2ccc(OCc3cc(-c4c(Cl)cccc4Cl)no3)cc2)cc1` [PDL103, (4’-((3-(2,6-dichlorophenyl)isoxazol-5-yl)methoxy)-[1,1’-biphenyl]-4-yl)methanol], for which the “effect on LIF/LIFR complex formation (LIFR antagonism), in words” value in assay [1] (cell-free Alpha Screen) was “inactive”. Also, the IC50 in assay [1] is 97.5 ± 29.3 µM; in assay [2] (Hek293T, transactivation induced by TLCA (10 μM), read-out: Hek293T GPBAR1 Antagonism IC50), 19 µM.
In the case of `CC[C@H]1[C@@H](O)C2C3CC[C@H]([C@H](C)CCO)[C@@]3(C)CCC2[C@@]2(C)CC[C@@H](O)C[C@@H]12` (some centres unmarked) [BAR502], in assay [1], the IC50 is 3.6 µM and 3.59 µM. The EC50 in assay [2] (transactivation, agonism, read-out: GPBAR1 EC50 Transact) was 0.4 ± 0.1 µM.

What is called EC50 is the concentration giving half of the maximal effect.
